Values of other authors, collected in patent US20220218740A1, “OPIOID-FREE COMPOSITIONS FOR ANESTHESIOLOGICAL APPLICATIONS AND RELATED METHODS AND SYSTEMS” (Vaporworks Nursing Anesthesia Inc., priority 2020, published 2022).
Read-outs that look alike come from different tables or passages of the source.

Tests used:
[1] = infusion continued post-surgically
[2] = not given; remark: listed apart in the source

Q: With `C[C@@H]1C[C@H]2[C@@H]3CCC4=CC(=O)C=C[C@]4(C)[C@@]3(F)[C@@H](O)C[C@]2(C)[C@@]1(O)C(=O)COP(=O)(O)O` [Dexamethasone, Dexamethasone Sodium phosphate] as the compound, how does the onset time (in vivo) read?
A: Its onset time is “two”.

Q: What about the “time until peak effect” value (in vivo) of the same compound?
A: The value was “at least 1 hour”.

Q: For `Cc1cccc([C@H](C)c2cnc[nH]2)c1C` [Dexmedetomidine], which peek effect (IV) is on record?
A: The peek effect was 15 min.

Q: Which “Peak serum levels occur after medication administration” value [1] does the source give for `CCN(CC)CC(=O)Nc1c(C)cccc1C` [Lidocaine] here?
A: Its value is “serum levels occur 24 hours”.

Q: Which results are given for `COC(=O)CCc1ccc(OCC(O)CNC(C)C)cc1` (stereo not shown) [esmolol]?
A: Duration ([2]; in vivo): > 20 min; Peak ([2]; in vivo): 2 to 6 min; Onset ([2]; in words): Immediate

Q: Which Duration ([2]; in vivo) does the source give for `CC(CCc1ccccc1)NCC(O)c1ccc(O)c(C(N)=O)c1` (stereo not shown) [labetalol] here?
A: Its Duration is “up to 4 hours”.

Q: And the Onset ([2]; in vivo)?
A: Its Onset is 2 to 5 min.

Q: What about the Peak ([2]; in vivo) of the same compound?
A: The Peak was 5 to 15 min.
